For this test, the target named is T1, S. acidocaldarius 20S proteasome (Saci_0613/Saci_0662ΔN/Saci_0909ΔN) (Sulfolobus acidocaldarius, UniProt Q4JAA8).
T1 sequence (Q4JAA8 11-203): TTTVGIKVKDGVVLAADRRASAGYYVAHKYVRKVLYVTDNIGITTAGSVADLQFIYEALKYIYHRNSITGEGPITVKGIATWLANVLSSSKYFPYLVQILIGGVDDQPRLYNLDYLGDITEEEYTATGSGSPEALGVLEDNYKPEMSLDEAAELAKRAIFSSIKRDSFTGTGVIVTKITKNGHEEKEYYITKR
T1 sequence (Q4JB24 1-242 partner): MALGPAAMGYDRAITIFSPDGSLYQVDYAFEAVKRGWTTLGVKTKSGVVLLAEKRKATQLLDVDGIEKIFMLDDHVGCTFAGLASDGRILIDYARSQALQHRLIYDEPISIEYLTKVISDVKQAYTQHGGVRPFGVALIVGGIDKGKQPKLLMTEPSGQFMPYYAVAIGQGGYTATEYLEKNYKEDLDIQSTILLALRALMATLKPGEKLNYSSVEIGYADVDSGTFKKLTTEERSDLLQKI
T1 sequence (Q4JAY3 7-195 partner): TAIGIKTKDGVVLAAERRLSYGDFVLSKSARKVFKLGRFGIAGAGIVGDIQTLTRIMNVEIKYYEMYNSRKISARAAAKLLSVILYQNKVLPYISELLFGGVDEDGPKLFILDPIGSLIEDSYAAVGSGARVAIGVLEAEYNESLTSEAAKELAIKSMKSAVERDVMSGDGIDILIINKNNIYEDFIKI
The test is described as follows: degradation of Urm1. The class given is biochemical. The following applies: substrate 3xUrm1-GFP; covalent (reversible boronate on Thr1, modelled).

For `CC(C)C[C@H](NC(=O)[C@H](Cc1ccccc1)NC(=O)c1cnccn1)B(O)O` [bortezomib], the “rate of substrate degradation” value is “with different concentrations of inhibitor, the rate of substrate degradation was diminished”.

The record behind these values is PMC7116001 (Science (New York, N.Y.), 2020).
